Test results as given in publication PMC11791359, “A select inhibitor of MORC2 encapsulated by chimeric membranecoated DNA nanocage target alleviation TNBC progression” (Materials Today Bio, 2025).
Entries after “also recorded” stand apart in the source; their conditions may differ.

How the values were obtained:
[1] = tested on: 4T1 cells; assay: CCK8 assay, 4T1; format: cell-based, mouse; settings: CCK8, 4T1
Experimental: CCK8 assay was performed to confirm the optimal killing concentration of Angoline on TNBC cells (MDA-MB-231, MDA-MB-468, and 4T1) in vitro. […] Thus, we further verified our speculation by detecting the cell viability and apoptosis rate of TNBC cells treated with Angoline and/or apoptosis inhibitor (Z-VAD-FMK). As expected, the toxic effect of Angoline on TNBC cells was reduced by Z-VAD-FMK (Fig. 2F). […] Also, YO-PRO-1 staining confirmed that the proportion of apoptotic cells was reduced when Z-VAD-FMK was added in the Angoline treated group (Fig. 2H). […] While, the detailed pro-apoptotic mechanism needs to be further elucidated.

[2] = tested on: TNBC cells; assay: Apoptosis by flow cytometry (Annexin V-FITC/PI); format: cell-based, human; settings: TNBC cells treated with Angoline
Experimental: The treated cells were digested with pancreatic enzymes and then were collected and washed with PBS. The cells were immobilized with pre-cooled 70% ethanol at 4 ℃ for 12-24 hours, and then centrifuged, washed, and suspended to ensure uniform cell dispersion. Propyridine iodide staining solution was added to each cell sample and incubated without light at 37 ℃ for 30 minutes. Subsequently, the labeled cells were subjected to cell cycle analysis using flow cytometer (Beckman Coulter, USA), and the results were processed by FlowJo software. For the apoptosis assay, 1 × 10^5 cells per sample were collected into 1.5 mL centrifuge tubes and were re-suspended with 195 μL Annexin V-FITC binding solution. Then, 5 μL Annexin V-FITC and 10 μL PI dyeing solution were added into every sample to re-suspend the cells and incubated at 20-25 °C for 20 minutes. Flow cytometry was used to detect red fluorescence at 638 nm and green fluorescence at 488 nm, and the apoptosis results were analysed by FlowJo software.

[3] = tested on: IL6/STAT3 signaling pathway; set-up: method as in PMID 24863036; settings: cited from earlier work

COc1ccc2c(c1OC)C(OC)N(C)c1c-2ccc2cc3c(cc12)OCO3 (stereo not drawn) [Angoline]
inhibitory effect on cell viability [1]: progressively increased with higher concentrations | apoptosis rate [2]: significantly increased; also recorded: dramatically increased | suppression of IL6/STAT3 signaling pathway [3]: suppress the IL6/STAT3 signaling pathway
